Key:
HepG2 cells = assay: human liver cell viability, MTT assay; type: cell-based; conditions: at the concentration that yielded the highest functionality; overnight at 37° C.
Protocol: In the assay, HepG2 cells (human hepatocellular carcinoma cells) were harvested and incubated at 37° C. overnight in a 96-well plate to a concentration of 20,000 cells per well using Minimum Essential Medium (MEM) as media. The following day (or once cells were confluent) the media was removed and cells were incubated at 37° C. overnight with MEM supplemented with desired concentration of PMP-Glc and NOGlc (100 μL of solution added). The following day the plates were centrifuged (700 RPM for 3 minutes) and the solutions were removed. 200 μL of MEM was added to each well, followed by 50 μL of 2.5 mg/mL MTT solution in Hank's Balanced Salt Solution (HBSS) to a final concentration of 0.5 mg/mL MTT per well. Then the plates were incubated for 3 hours at 37° C. After incubation, the plates were centrifuged (700 RPM for 3 minutes) and 200 μL of a 10% TritonX/0.1 N HCl in isopropanol solution was added to each well. The plates were incubated in the dark for 1 hour, then shaken and the absorbance at […] of each well was read. % viability at 37° C. of PMP-Glc at a concentration 11 mM, 22 mM, 44 mM, 110 mM and 220 mM PMP-Glc was measured, and the results are shown in FIG. 12. % viability at 37° C. of NOGlc at a concentration of 0.1 mM, 0.2 mM, 0.5 mM, 1 mM, 2 mM and 5 mM was measured. Also, % viability at 37° C. of PMP-Glc, pFPh-Glc and pBrPh-Glc at a concentration of 11 mM, 22 mM, 44 mM, 55 mM, 110 mM and 220 mM was measured under the same conditions for the MTT Assay described above.
Human liver cell viability in compound (3a), (4a), […], and (1b) was assessed using a 3-(4,5-dimethylthiazol-2-yl)-2,5-diphenyltetrazolium bromide (MTT) Assay. In the assay, HepG2 cells (human hepatocellular carcinoma cells) were harvested and incubated overnight at 37° C. in a 96-well plate to a concentration of 20,000 cells per well using Minimum Essential Medium (MEM) as media. The following day, the media was removed and cells were incubated at 37° C. overnight with 100 μL MEM supplemented with different concentrations of (3a), (2a), (4a), and (1b). The following day, the plates were centrifuged at 1000 rpm for 5 minutes and solutions removed by aspiration. 200 μL of MEM was added to each well, followed by 50 μL of 2.5 mg/mL MTT (dissolved in HBSS). The plates were then incubated at 37° C. for 4 hours. After incubation, the plates were centrifuged at 1000 rpm for 5 minutes and solution was aspirated. […] The plates were incubated at ambient temperature for 3 hours before being shaken and the absorbance at 570 nm of each well was read. % viability at 37° C. of (3a) at 11 mM, 22 mM, 44 mM, 55 mM and 110 mM was measured and the results are shown in FIG. 37. […] Nonetheless, the cytotoxicity of DMSO itself was not determined.

[1] = splat cooling ice recrystallization inhibition (IRI) assay; conditions: for decrease in grain size: mean grain size vs PBS alone, 30 min at −6.4° C., FIG. 28
Protocol: In this assay, the area of ice crystals are measured after a 30 minute annealing time at −6.4° C. and compared to a positive control for ice recrystallization resulting in a quantitative measurement of the mean ice grain size. For a positive control, a phosphate buffered saline (PBS) solution was utilized. All samples were normalized to the PBS positive control. The ice recrystallization inhibition activity of the carbohydrate-based non-ionic surfactants n-octyl-β-D-glucopyranoside (compound 3) and n-octyl-β-D-galactopyranoside (compound 4) is shown in FIG. 1.
In this assay, the area of ice crystals are measured after a 30 minute annealing time at −6.4° C. and compared to a positive control for ice recrystallization resulting in a quantitative measurement of the mean ice grain size. For a positive control, a PBS solution was utilized. All samples were normalized to the PBS positive control.
N-aryl-D-gluconamides (3a), (2a), (4a), and (1b) are a class of low molecular weight carbohydrate-based compounds. The ice recrystallization inhibition activity of (3a), (2a), (4a), and (1b) was assessed using a “splat cooling” assay. In this assay, the area of ice crystals are measured after a 30 minutes annealing time at −6.4° C. and compared to a positive control for ice recrystallization resulting in a quantitative measurement of the mean ice grain size. For a positive control, PBS was utilized. All samples were normalized to the PBS positive control.

| Structure (SMILES) | cytotoxicity (HepG2 cells) | decrease in grain size [1] | ice recrystallization inhibition activity ([1]; concentration not given) |
| --- | --- | --- | --- |
| COc1ccc(NC(=O)[C@H](O)[C@@H](O)[C@H](O)[C@H](O)CO)cc1 [(3a), N-(4-methoxyphenyl)-D-gluconamide] | minimally cytotoxic relative to DMSO alone | ~95% | – |
| O=C(Nc1ccc(Cl)cc1)[C@H](O)[C@@H](O)[C@H](O)[C@H](O)CO [(4a), N-(4-chlorophenyl)-D-gluconamide] | minimally cytotoxic relative to DMSO alone | ~60% | – |
| O=C(NCc1c(F)cccc1F)[C@H](O)[C@@H](O)[C@H](O)[C@H](O)CO [(1b), N-(2,6-difluorobenzyl)-D-gluconamide] | minimally cytotoxic relative to DMSO alone | about 85% | higher IRI activity than compound (2b) |
| O=C(Nc1ccccc1F)[C@H](O)[C@@H](O)[C@H](O)[C@H](O)CO [(2a), N-(2-fluorophenyl)-D-gluconamide] | minimally cytotoxic relative to DMSO alone | ~95% | – |
